This assay relates to Aβ40. Kind of assay: Assessment of Aβ levels in rat brain and plasma following BACE1 inhibition (Aβ40 ELISA). The format is in vivo. To be noted: 3 hours post dose, vs vehicle. The protocol: Young adult Male Sprague Dawley rats of approximately 250 g weight were purchased from Charles River and received 0-30 mg/kg of vehicle (10% HP betaCD+1M MeSO4, pH 2.5) or test compounds (dissolved in vehicle) only by oral gavage (p.o). The compounds are dosed at a volume of 5 ml/kg. Cohorts of 5-10 animals were established for each treatment condition.
At T=180 minutes after initial dosing the animals were stunned and decapitated with a guillotine. Trunk-blood was sampled in EDTA coated tubes after decapitation of the animal. The blood was centrifuged at 2200 G at 4° C. for 15 minutes and the plasma was collected and frozen at −80° C. The blood was aliquoted for Aβ ELISA and DMPK analysis Immediately following sacrifice, the brain was extracted and split into 2 halves. The right hemibrains were snap frozen on dry ice and stored at −80° C. The left half was dissected; with the front forebrain taken for Aβ ELISA and the remainder used for DMPK analysis. These samples were also snap frozen on dry ice and stored at −80° C. until use for analysis.
The cortex samples were thawed slightly on wet ice before they were homogenized with a small volume dispersing instrument (T10 basic ULTRA-TURRAX®) which was set at speed 5 for approximately 5-7 sec. The tissue was processed in a 10 times volume of the weight, for example 100 mg of tissue was homogenized in 1000 μL of Homogenization buffer. Homogenization buffer: 50 ml Milli Q water+50 nM NaCl+0.2% Diethylamin (DEA)+1 tablet of Complete Protease inhibitor cocktail+1 nM 4-(2-aminoethyl) benzenesulfonyl fluoride hydrochloride irreversible serine protease inhibitor (AEBSF).
After homogenization 450 μL aliquots of the samples are collected into a 1.5 ml Eppendorf tube and placed on wet ice, 0.5% NP-40 (50 ul) was added to all samples and then they were incubated on ice for 30 min. After which all samples were sonicated using an Ultrasonic homogenizer with 20 kHz homogeneous sound (SONOPLUS HD2070, Bandelin Electronic) 10 pulse set at 12-13% power to extract all the Aβ species. The samples were then centrifuged (Ole Dich 157 MPRF Micro centrifuge) at 20000 G for 20 minutes at 4° C. After centrifugation 285 μL of the supernatant was pipetted into 600 μL microtubes tubes and neutralized with 15 μL of 1M Tris-HCL buffer.
WAKO 294-62501 Human/Rat Abeta amyloid (40) kit was used for all ELISA analyses. 30 μL plasma samples or 30 μL of the cortex supernatants generated as described above were placed in 600 μL microtubes tubes on wet ice. To this 30 μL of 8M Urea (AppliChem A1049, 9025) are added to generate a 2-fold dilution. Both plasma and cortex supernatants are incubated on ice for 30 min. Standard rows were prepared from the standard peptide stock provided in the kit and standard diluent containing 1.6M Urea (200 μL 8M Urea+800 μL of standard diluent) and 0.8M Urea (400 μL 8M Urea+3600 μL Standard diluent). A serial 2-fold dilution of Aβ40 from 100 pmol/ml to 0 pmol/L was prepared for the assay.
After incubation with urea, all samples were further diluted by addition of 5 times standard diluent from the Kit. This was done by adding 240 μL Standard Diluent to 60 μL sample/urea mixture, which was then mixed well. 100 μL of each diluted sample was pipetted into designated wells of the ELISA plate in duplicates. The plate was then covered and incubated overnight at 4° C. The following day, the ELISA kit was brought to room temperature before use. The incubated plate was washed 5 times with the 20× washing solution diluted in Milli Q water. 100 μL HRP-conjugate was applied to each well, and the plate was covered and incubates at 4° C. for 1 hr. The wash was repeated again for 5 times. 100 μL 3,3′,5,5′-Tetramethylbenzidine (TMB) solution was applied to each well and the plate was covered and incubated in the dark at room temperature for 30 minutes. […]
A general note: In an ELISA, binding on a coated surface is turned into a signal by an enzyme label.

The compound `COc1cnc(C(=O)Nc2ccc(F)c([C@@]3(C(F)F)N=C(N)CCC3(F)F)c2)cn1` [Compound 3, (S)—N-(3-(6-amino-2-(difluoromethyl)-3,3-difluoro-2,3,4,5-tetrahydropyridin-2-yl)-4-fluorophenyl)-5-methoxypyrazine-2-carboxamide] registered an Aβ40 reduction (brain, 10 mg/kg p.o.) of 24%; an Aβ40 reduction (brain, 30 mg/kg p.o.) of 38%; an Aβ40 reduction (plasma, 10 mg/kg p.o.) of 39%; an Aβ40 reduction (plasma, 30 mg/kg p.o.) of 42%.
For `COc1ccc(C(=O)Nc2ccc(F)c([C@@]3(C(F)F)N=C(N)CCC3(F)F)c2)nc1` [Compound 5, (S)—N-(3-(6-amino-2-(difluoromethyl)-3,3-difluoro-2,3,4,5-tetrahydropyridin-2-yl)-4-fluorophenyl)-5-methoxypicolinamide] the same measures were 5%, 36%, 40% and 49%.
